{"source": "patent US20090130187A1", "about": "“Covalent Conjugates of Cotton and Substitutes (Viscose, Modal Cotton) with Bioactive Substances Having Antiseptic, Sanitizing, Acaricidal and Insect Repellent Activity, and a Method for Obtaining Them” (priority 2006, published 2009)", "origin": "cited, not measured here", "system": "rat", "data": [{"compound": "Clc1nc(Cl)nc(Cl)n1", "note": "[2,4,6-tri-chloro 1,3,5 triazine]", "values": [{"measurement": "LD 50 (rat)", "value": 930, "unit": "mg/kg"}]}]}
